One may read the inhibition as the relative decrease from the control value, in per cent.

What all share (assay): HotSpot kinase profiling
Holding throughout (type): biochemical

The target in one assay is T1, TNIK (Homo sapiens, UniProt Q9UKE5).
T1 construct: purchased Reaction Biology Corp
An outline of the steps:
(§1)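 Activity is measured by radiolabel transfer captured on P81 filters after a 2 h room-temperature reaction of kinase, substrate and cofactors. Values are percent inhibition against DMSO.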

A further assay deals with T2, MSK2/RPS6KA4 (Homo sapiens, UniProt O75676).
T2 construct: purchased Reaction Biology Corp
An outline of the steps:
as §1

For the next assay, the target named is T3, BMPR2 (Homo sapiens, UniProt Q13873).
T3 construct: purchased Reaction Biology Corp
T3 sequence (Q13873 27-1038): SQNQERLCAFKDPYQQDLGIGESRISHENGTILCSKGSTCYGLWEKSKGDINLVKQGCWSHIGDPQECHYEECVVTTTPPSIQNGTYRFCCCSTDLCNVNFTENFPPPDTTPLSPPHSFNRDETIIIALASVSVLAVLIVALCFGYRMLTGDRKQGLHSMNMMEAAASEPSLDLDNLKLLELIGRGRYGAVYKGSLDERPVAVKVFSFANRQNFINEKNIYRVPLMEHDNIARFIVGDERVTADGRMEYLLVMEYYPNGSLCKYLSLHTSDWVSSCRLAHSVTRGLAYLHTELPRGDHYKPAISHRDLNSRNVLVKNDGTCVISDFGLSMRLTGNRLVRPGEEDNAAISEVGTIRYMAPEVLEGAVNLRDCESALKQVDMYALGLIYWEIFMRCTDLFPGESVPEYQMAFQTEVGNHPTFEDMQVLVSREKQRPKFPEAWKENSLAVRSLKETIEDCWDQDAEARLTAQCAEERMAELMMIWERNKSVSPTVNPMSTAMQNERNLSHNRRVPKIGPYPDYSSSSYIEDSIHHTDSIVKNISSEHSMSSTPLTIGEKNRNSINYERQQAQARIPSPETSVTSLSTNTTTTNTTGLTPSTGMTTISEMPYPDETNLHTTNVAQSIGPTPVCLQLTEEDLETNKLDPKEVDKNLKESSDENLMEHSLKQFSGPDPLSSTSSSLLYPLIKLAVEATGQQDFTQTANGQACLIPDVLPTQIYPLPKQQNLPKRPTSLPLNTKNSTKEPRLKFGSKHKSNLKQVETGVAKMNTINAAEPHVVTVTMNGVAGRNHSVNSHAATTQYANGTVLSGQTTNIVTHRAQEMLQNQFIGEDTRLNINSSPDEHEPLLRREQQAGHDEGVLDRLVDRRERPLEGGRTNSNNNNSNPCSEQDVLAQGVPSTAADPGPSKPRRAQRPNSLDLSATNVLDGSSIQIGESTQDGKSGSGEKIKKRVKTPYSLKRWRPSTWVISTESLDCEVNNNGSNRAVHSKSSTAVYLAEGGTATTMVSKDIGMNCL
In a few lines:
as §1

The next assay deals with T4, BRAF (Homo sapiens, UniProt P15056).
T4 construct: purchased Reaction Biology Corp
In a few lines:
as §1

For the next assay, the target named is T5, TTBK1 (Homo sapiens, UniProt Q5TCY1).
T5 construct: purchased Reaction Biology Corp
In a few lines:
as §1

The next assay concerns the target T6, PDGFRb (Homo sapiens, UniProt P09619).
T6 construct: purchased Reaction Biology Corp
An outline of the steps: as §1

A further assay addresses T7, GCK/MAP4K2 (Homo sapiens, UniProt Q12851).
T7 construct: purchased Reaction Biology Corp
T7 sequence (Q12851 1-820): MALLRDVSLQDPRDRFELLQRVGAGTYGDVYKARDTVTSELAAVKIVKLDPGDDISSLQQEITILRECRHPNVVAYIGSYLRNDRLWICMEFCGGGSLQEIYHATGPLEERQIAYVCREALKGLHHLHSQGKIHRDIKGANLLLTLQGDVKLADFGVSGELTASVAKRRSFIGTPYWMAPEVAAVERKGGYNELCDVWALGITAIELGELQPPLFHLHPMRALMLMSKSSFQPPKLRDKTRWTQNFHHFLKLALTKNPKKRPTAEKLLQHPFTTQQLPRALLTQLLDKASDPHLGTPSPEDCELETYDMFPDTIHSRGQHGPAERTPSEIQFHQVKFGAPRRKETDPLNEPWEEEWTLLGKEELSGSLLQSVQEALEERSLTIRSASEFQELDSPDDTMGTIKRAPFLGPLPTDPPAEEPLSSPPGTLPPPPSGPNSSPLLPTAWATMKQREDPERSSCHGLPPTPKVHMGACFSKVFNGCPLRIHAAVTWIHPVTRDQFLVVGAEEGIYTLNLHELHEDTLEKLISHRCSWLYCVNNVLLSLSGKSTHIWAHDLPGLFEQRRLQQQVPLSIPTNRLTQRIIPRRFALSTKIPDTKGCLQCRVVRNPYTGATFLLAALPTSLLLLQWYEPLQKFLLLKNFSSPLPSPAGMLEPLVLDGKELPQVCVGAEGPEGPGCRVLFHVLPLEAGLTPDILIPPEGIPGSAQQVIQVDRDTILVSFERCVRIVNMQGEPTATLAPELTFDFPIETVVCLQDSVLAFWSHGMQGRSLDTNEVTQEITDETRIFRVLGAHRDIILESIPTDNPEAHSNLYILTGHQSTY
In a few lines:
as §1

[1] abbreviates: read-out: % Enzyme Activity (relative to DMSO controls) Run 1.
[2] abbreviates: read-out: % Enzyme Activity (relative to DMSO controls) Run 2.

Read-outs that look alike come from different tables or passages of the source.

T5 sequence (Q5TCY1 whole entry): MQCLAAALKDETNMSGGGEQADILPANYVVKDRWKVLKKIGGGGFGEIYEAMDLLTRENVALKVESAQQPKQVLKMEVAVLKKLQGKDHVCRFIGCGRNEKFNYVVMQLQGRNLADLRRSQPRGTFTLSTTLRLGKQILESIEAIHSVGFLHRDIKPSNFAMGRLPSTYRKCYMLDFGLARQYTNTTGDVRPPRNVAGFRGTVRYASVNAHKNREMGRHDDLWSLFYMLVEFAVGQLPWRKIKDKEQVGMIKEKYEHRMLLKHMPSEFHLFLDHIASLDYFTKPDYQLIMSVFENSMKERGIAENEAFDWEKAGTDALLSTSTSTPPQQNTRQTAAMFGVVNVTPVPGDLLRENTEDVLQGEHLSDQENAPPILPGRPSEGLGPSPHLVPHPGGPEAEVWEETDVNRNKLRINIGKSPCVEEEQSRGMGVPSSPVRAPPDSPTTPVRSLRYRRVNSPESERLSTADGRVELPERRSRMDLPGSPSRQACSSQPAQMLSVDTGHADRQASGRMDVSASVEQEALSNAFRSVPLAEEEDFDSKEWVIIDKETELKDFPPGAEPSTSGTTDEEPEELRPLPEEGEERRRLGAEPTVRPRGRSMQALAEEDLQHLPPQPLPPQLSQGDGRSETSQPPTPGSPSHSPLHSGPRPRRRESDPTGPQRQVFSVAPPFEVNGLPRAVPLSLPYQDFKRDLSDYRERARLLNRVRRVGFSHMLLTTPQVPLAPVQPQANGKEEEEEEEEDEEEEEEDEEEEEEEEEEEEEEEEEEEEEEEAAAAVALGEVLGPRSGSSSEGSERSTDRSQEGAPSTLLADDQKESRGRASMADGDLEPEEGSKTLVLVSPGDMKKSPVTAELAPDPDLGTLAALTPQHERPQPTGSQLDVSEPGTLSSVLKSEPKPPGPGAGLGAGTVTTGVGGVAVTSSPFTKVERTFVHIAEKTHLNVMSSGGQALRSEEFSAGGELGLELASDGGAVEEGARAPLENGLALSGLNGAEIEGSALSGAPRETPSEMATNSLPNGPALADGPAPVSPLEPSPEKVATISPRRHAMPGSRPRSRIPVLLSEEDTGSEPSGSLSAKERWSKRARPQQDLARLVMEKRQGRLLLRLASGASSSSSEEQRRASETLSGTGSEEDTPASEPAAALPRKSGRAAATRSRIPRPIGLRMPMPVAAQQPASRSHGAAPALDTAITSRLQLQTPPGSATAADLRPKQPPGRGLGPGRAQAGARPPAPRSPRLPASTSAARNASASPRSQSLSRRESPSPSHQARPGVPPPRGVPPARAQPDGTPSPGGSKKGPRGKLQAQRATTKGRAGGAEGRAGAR
T1 sequence (Q9UKE5 whole entry): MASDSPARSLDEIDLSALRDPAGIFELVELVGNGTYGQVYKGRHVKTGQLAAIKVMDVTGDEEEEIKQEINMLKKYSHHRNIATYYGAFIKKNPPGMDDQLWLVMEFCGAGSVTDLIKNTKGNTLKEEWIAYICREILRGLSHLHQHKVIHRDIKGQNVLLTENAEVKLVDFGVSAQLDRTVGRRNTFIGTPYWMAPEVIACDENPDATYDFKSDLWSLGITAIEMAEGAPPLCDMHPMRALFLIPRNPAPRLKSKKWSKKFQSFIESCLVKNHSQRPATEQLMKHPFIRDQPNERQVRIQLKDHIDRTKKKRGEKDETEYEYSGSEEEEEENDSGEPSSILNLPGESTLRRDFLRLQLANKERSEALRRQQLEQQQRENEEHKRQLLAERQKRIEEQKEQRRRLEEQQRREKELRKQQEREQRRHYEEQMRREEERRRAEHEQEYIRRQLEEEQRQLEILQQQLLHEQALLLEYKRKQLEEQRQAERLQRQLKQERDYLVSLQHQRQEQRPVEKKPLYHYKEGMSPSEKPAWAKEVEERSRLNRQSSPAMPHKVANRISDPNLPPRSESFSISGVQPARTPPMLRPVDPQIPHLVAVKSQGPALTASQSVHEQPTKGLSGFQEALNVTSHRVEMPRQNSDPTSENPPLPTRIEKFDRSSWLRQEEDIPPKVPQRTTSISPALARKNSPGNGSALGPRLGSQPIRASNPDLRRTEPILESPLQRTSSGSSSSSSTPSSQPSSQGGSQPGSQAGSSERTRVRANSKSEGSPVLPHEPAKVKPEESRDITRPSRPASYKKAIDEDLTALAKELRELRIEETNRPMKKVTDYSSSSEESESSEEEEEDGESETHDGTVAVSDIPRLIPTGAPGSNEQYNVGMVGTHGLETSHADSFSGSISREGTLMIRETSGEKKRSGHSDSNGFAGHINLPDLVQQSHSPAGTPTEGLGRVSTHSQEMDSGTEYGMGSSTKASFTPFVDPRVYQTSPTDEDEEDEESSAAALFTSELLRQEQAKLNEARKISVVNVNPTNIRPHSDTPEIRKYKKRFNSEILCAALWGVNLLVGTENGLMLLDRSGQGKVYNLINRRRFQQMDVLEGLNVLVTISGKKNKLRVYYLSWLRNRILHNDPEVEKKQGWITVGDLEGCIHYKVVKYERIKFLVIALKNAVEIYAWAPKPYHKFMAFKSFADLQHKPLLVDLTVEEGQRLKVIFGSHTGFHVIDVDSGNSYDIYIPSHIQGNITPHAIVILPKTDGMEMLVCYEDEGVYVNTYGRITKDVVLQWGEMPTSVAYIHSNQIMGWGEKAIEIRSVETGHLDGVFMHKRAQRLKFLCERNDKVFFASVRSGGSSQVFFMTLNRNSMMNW
T4 sequence (P15056 whole entry): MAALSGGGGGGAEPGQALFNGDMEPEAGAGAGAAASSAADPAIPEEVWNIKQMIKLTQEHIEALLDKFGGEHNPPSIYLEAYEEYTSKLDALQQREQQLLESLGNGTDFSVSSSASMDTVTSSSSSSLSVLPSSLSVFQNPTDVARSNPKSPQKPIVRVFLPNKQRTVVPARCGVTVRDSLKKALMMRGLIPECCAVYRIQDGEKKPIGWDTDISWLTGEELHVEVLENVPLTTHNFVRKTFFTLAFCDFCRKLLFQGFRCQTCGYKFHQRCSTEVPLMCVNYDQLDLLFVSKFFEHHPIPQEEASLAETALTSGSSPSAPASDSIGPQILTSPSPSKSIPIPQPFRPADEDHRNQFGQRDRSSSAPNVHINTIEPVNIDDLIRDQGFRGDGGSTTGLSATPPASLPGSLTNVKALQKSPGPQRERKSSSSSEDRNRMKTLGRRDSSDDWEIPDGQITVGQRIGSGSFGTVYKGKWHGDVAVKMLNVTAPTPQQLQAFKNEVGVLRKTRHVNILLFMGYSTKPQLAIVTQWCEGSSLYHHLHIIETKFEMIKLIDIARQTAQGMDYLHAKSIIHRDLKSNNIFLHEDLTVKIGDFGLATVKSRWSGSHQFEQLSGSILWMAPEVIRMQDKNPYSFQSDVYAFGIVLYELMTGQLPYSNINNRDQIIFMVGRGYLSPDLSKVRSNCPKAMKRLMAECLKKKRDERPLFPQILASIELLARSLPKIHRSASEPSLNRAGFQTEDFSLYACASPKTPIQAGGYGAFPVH
T2 sequence (O75676 whole entry): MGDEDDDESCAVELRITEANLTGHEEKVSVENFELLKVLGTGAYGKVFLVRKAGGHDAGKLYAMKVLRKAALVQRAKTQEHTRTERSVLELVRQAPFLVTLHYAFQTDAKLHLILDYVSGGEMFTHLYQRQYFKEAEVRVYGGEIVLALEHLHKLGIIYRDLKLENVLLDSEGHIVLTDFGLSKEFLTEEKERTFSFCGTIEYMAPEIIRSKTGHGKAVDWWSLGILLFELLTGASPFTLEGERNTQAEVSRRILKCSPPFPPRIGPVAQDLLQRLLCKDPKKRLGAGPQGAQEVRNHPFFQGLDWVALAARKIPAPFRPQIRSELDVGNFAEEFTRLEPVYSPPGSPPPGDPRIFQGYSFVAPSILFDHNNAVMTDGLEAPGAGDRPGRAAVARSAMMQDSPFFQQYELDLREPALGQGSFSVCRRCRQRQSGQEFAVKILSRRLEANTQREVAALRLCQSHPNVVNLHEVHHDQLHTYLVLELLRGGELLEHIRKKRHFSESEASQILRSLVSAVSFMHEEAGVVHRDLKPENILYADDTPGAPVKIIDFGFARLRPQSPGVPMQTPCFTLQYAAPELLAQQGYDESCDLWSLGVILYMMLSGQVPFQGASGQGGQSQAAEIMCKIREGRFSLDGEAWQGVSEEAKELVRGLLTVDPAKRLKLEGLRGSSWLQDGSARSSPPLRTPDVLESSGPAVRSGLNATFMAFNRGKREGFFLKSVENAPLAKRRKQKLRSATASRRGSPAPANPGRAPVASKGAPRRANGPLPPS

Turning to `C=CC(=O)Nc1cccc(Nc2nc(Nc3ccc(OCCOC)c(F)c3)ncc2F)c1` [Compound 2], the inhibition at 3 µM on TNIK is 32.7%; at MSK2/RPS6KA4, -0.36%; at BMPR2, 16.2%; against BRAF it was 0.04%; on TTBK1, -1.65%; on PDGFRb it was 52.4%. Moreover, at GCK/MAP4K2, the inhibition at 3 µM is -0.14%. Besides, the remaining activity at 3 µM at TNIK (setting [1]) worked out at 66.8%; on TNIK (setting [2]), 67.8%; on MSK2/RPS6KA4 (setting [1]) it was 103%; at MSK2/RPS6KA4 (setting [2]) it was 97.4%; on BMPR2 (setting [1]), 83.8%; at BMPR2 (setting [2]) it was 83.8%. The remaining activity at 3 µM at BRAF (setting [1]) turned out to be 101%; at BRAF (setting [2]), 99.1%; at TTBK1 (setting [1]) it was 101%; on TTBK1 (setting [2]), 102%; on PDGFRb (setting [1]), 47.7%; at PDGFRb (setting [2]) it was 47.4%. Moreover, the remaining activity at 3 µM at GCK/MAP4K2 (setting [1]) and on GCK/MAP4K2 (setting [2]) was 100% each time.

Values taken from patent publication US9492471B2, “Methods of treating a disease or disorder associated with Bruton'S Tyrosine Kinase” (Celgene Avilomics Research, Inc., priority 2013, dated 2016).
